Reference: patent publication US20260028354A1, “TETRAHYDRONAPHTHALENE DERIVATIVES AS ESTROGEN RECEPTOR DEGRADERS” (REGENT OF THE UNIVERSITY OF MICHIGAN, priority 2022, published 2026)

Experiment: Western blot analysis for "B" compounds
Type: cell-based
Settings: read-out: Traditional Western Degradation Potency (DC50)
Outline: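 Target protein levels given as relative mean band intensity over GAPDH from scanned immunoblots. Lysates of treated cells in RIPA buffer, equalized by BCA, separated on 10% gels and transferred to PVDF.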

First: O=C1CCC(N2Cc3cc4c(cc3C2=O)CN(C(=O)C2CCC(N3CC(Oc5ccc([C@@H]6c7ccc(O)cc7CC[C@@H]6c6ccccc6)cc5)C3)CC2)C4)C(=O)N1 (stereo partly drawn) [Compound B106, 3-(6-((1R,4r)-4-(3-(4-((1R,2S)-6-hydroxy-2-phenyl-1,2,3,4-tetrahydronaphthalen-1-yl)phenoxy)azetidin-1-yl)cyclohexane-1-carbonyl)-1-oxo-3,5,6,7-tetrahydropyrrolo[3,4-f]isoindol-2(1H)-yl)piperidine-2,6-dione]
Second: O=C1CCC(N2C(=O)c3cc4c(cc3C2=O)CN(C(=O)[C@H]2CC[C@@H](N3CC(Oc5ccc([C@@H]6c7ccc(O)cc7CC[C@@H]6c6ccccc6)cc5)C3)CC2)C4)C(=O)N1 (stereo partly drawn) [Compound B126, 2-(2,6-dioxopiperidin-3-yl)-6-((1R,4s)-4-(3-(4-((1R,2S)-6-hydroxy-2-phenyl-1,2,3,4-tetrahydronaphthalen-1-yl)phenoxy)azetidin-1-yl)cyclohexane-1-carbonyl)-6,7-dihydropyrrolo[3,4-f]isoindole-1,3(2H,5H)-dione]
The DC50 of the first is lower: < 10 nM for the first, 10 to 100 nM for the second.

`O=C1CCC(N2Cc3cc4c(cc3C2=O)CN(C(=O)C2CCC(N3CC(Oc5ccc([C@@H]6c7ccc(O)cc7CC[C@@H]6c6ccccc6)cc5)C3)CC2)C4)C(=O)N1` (stereo partly drawn) [Compound B107, 3-(6-((1S,4s)-4-(3-(4-((1R,2S)-6-hydroxy-2-phenyl-1,2,3,4-tetrahydronaphthalen-1-yl)phenoxy)azetidin-1-yl)cyclohexane-1-carbonyl)-1-oxo-3,5,6,7-tetrahydropyrrolo[3,4-f]isoindol-2(1H)-yl)piperidine-2,6-dione] and `O=C1CCC(N2C(=O)c3cc4c(cc3C2=O)CN(C(=O)[C@H]2CC[C@H](N3CC(Oc5ccc([C@@H]6c7ccc(O)cc7CC[C@@H]6c6ccccc6)cc5)C3)CC2)C4)C(=O)N1` (stereo partly drawn) [Compound B127, 2-(2,6-dioxopiperidin-3-yl)-6-((1S,4r)-4-(3-(4-((1R,2S)-6-hydroxy-2-phenyl-1,2,3,4-tetrahydronaphthalen-1-yl)phenoxy)azetidin-1-yl)cyclohexane-1-carbonyl)-6,7-dihydropyrrolo[3,4-f]isoindole-1,3(2H,5H)-dione] cannot be ordered by DC50: > 100 nM for the first, > 100 nM for the second.

`O=C1CCC(N2Cc3cc4c(cc3C2=O)CN(C(=O)C2CCC(NC3CN(c5ccc([C@@H]6c7ccc(O)cc7CC[C@@H]6c6ccccc6)cc5)C3)CC2)C4)C(=O)N1` (stereo partly drawn) [Compound B108, 3-(6-(4-((1-(4-((1R,2S)-6-hydroxy-2-phenyl-1,2,3,4-tetrahydronaphthalen-1-yl)phenyl)azetidin-3-yl)amino)cyclohexane-1-carbonyl)-1-oxo-3,5,6,7-tetrahydropyrrolo[3,4-f]isoindol-2(1H)-yl)piperidine-2,6-dione] and `O=C1CCC(N2C(=O)c3cc4c(cc3C2=O)CN(C(=O)[C@H]2CC[C@H](N3CC(Nc5ccc([C@@H]6c7ccc(O)cc7CC[C@@H]6c6ccccc6)cc5)C3)CC2)C4)C(=O)N1` (stereo partly drawn) [Compound B128, 2-(2,6-dioxopiperidin-3-yl)-6-((1S,4r)-4-(3-((4-((1R,2S)-6-hydroxy-2-phenyl-1,2,3,4-tetrahydronaphthalen-1-yl)phenyl)amino)azetidin-1-yl)cyclohexane-1-carbonyl)-6,7-dihydropyrrolo[3,4-f]isoindole-1,3(2H,5H)-dione] fall in the same range of DC50: 10 to 100 nM for the first, 10 to 100 nM for the second.

`CN(C1CCN(c2ccc([C@@H]3c4ccc(O)cc4CC[C@@H]3c3ccccc3)cc2)CC1)C1CC(C(=O)N2Cc3cc4c(cc3C2)C(=O)N(C2CCC(=O)NC2=O)C4=O)C1` (stereo partly drawn) [Compound B111, 2-(2,6-dioxopiperidin-3-yl)-6-(3-((1-(4-((1R,2S)-6-hydroxy-2-phenyl-1,2,3,4-tetrahydronaphthalen-1-yl)phenyl)piperidin-4-yl)(methyl)amino)cyclobutane-1-carbonyl)-6,7-dihydropyrrolo[3,4-f]isoindole-1,3(2H,5H)-dione] and `O=C1CCC(N2C(=O)c3cc4c(cc3C2=O)CN(C(=O)C2CCC(CN3CCN(c5ccc([C@@H]6c7ccc(O)cc7CC[C@@H]6c6ccccc6)cc5)CC3)CC2)C4)C(=O)N1` (stereo partly drawn) [Compound B114, 2-(2,6-dioxopiperidin-3-yl)-6-(4-((4-(4-((1R,2S)-6-hydroxy-2-phenyl-1,2,3,4-tetrahydronaphthalen-1-yl)phenyl)piperazin-1-yl)methyl)cyclohexane-1-carbonyl)-6,7-dihydropyrrolo[3,4-f]isoindole-1,3(2H,5H)-dione] cannot be ordered by DC50: > 100 nM for the first, > 100 nM for the second.

Going from `O=C1CCC(N2C(=O)c3cc4c(cc3C2=O)CN(C(=O)[C@H]2CC[C@H](CN3CC(Nc5ccc([C@@H]6c7ccc(O)cc7CC[C@@H]6c6ccccc6)cc5)C3)CC2)C4)C(=O)N1` (stereo partly drawn) [Compound B112, 2-(2,6-dioxopiperidin-3-yl)-6-((1R,4r)-4-((3-((4-((1R,2S)-6-hydroxy-2-phenyl-1,2,3,4-tetrahydronaphthalen-1-yl)phenyl)amino)azetidin-1-yl)methyl)cyclohexane-1-carbonyl)-6,7-dihydropyrrolo[3,4-f]isoindole-1,3(2H,5H)-dione] to `O=C1CCC(N2C(=O)c3cc4c(cc3C2=O)CN([C@H]2CC[C@H](C(=O)N3CC(Nc5ccc([C@@H]6c7ccc(O)cc7CC[C@@H]6c6ccccc6)cc5)C3)CC2)C4)C(=O)N1` (stereo partly drawn) [Compound B124, 2-(2,6-dioxopiperidin-3-yl)-6-((1S,4r)-4-(3-((4-((1R,2S)-6-hydroxy-2-phenyl-1,2,3,4-tetrahydronaphthalen-1-yl)phenyl)amino)azetidine-1-carbonyl)cyclohexyl)-6,7-dihydropyrrolo[3,4-f]isoindole-1,3(2H,5H)-dione], the DC50 rises from < 10 nM to > 100 nM.

`O=C1CCC(N2C(=O)c3cc4c(cc3C2=O)CN(Cc2ccc(N3CC(Nc5ccc([C@@H]6c7ccc(O)cc7CC[C@@H]6c6ccccc6)cc5)C3)nc2)C4)C(=O)N1` (stereo partly drawn) [Compound B117, 2-(2,6-dioxopiperidin-3-yl)-6-((6-(3-((4-((1R,2S)-6-hydroxy-2-phenyl-1,2,3,4-tetrahydronaphthalen-1-yl)phenyl)amino)azetidin-1-yl)pyridin-3-yl)methyl)-6,7-dihydropyrrolo[3,4-f]isoindole-1,3(2H,5H)-dione] and `O=C1CCC(N2C(=O)c3cc4c(cc3C2=O)CN(C[C@H]2CC[C@H](N3CC(Nc5ccc([C@@H]6c7ccc(O)cc7CC[C@@H]6c6ccccc6)cc5)C3)CC2)C4)C(=O)N1` (stereo partly drawn) [Compound B118, 2-(2,6-dioxopiperidin-3-yl)-6-(((1R,4r)-4-(3-((4-((1R,2S)-6-hydroxy-2-phenyl-1,2,3,4-tetrahydronaphthalen-1-yl)phenyl)amino)azetidin-1-yl)cyclohexyl)methyl)-6,7-dihydropyrrolo[3,4-f]isoindole-1,3(2H,5H)-dione] cannot be ordered by DC50: > 100 nM for the first, > 100 nM for the second.

Compared with `O=C1CCC(N2C(=O)c3cc4c(cc3C2=O)CN(C[C@H]2CC[C@@H](N3CC(Nc5ccc([C@@H]6c7ccc(O)cc7CC[C@@H]6c6ccccc6)cc5)C3)CC2)C4)C(=O)N1` (stereo partly drawn) [Compound B119, 2-(2,6-dioxopiperidin-3-yl)-6-(((1S,4s)-4-(3-((4-((1R,2S)-6-hydroxy-2-phenyl-1,2,3,4-tetrahydronaphthalen-1-yl)phenyl)amino)azetidin-1-yl)cyclohexyl)methyl)-6,7-dihydropyrrolo[3,4-f]isoindole-1,3(2H,5H)-dione], `O=C1CCC(N2C(=O)c3cc4c(cc3C2=O)CN([C@H]2CC[C@@H](C(=O)N3CC(Nc5ccc([C@@H]6c7ccc(O)cc7CC[C@@H]6c6ccccc6)cc5)C3)CC2)C4)C(=O)N1` (stereo partly drawn) [Compound B125, 2-(2,6-dioxopiperidin-3-yl)-6-((1R,4s)-4-(3-((4-((1R,2S)-6-hydroxy-2-phenyl-1,2,3,4-tetrahydronaphthalen-1-yl)phenyl)amino)azetidine-1-carbonyl)cyclohexyl)-6,7-dihydropyrrolo[3,4-f]isoindole-1,3(2H,5H)-dione] is lower in DC50: > 100 nM for the first, < 10 nM for the second.

Compared with `O=C1CCC(N2C(=O)c3cc4c(cc3C2=O)CN(CC(=O)N2CCC(C(=O)N3CC(Oc5ccc([C@@H]6c7ccc(O)cc7CC[C@@H]6c6ccccc6)cc5)C3)CC2)C4)C(=O)N1` (stereo partly drawn) [Compound B120, 2-(2,6-dioxopiperidin-3-yl)-6-(2-(4-(3-(4-((1R,2S)-6-hydroxy-2-phenyl-1,2,3,4-tetrahydronaphthalen-1-yl)phenoxy)azetidine-1-carbonyl)piperidin-1-yl)-2-oxoethyl)-6,7-dihydropyrrolo[3,4-f]isoindole-1,3(2H,5H)-dione], `O=C1CCC(N2C(=O)c3cc4c(cc3C2=O)CN(CC(=O)N2CCC(N3CC(Oc5ccc([C@@H]6c7ccc(O)cc7CC[C@@H]6c6ccccc6)cc5)C3)CC2)C4)C(=O)N1` (stereo partly drawn) [Compound B121, 2-(2,6-dioxopiperidin-3-yl)-6-(2-(4-(3-(4-((1R,2S)-6-hydroxy-2-phenyl-1,2,3,4-tetrahydronaphthalen-1-yl)phenoxy)azetidin-1-yl)piperidin-1-yl)-2-oxoethyl)-6,7-dihydropyrrolo[3,4-f]isoindole-1,3(2H,5H)-dione] is lower in DC50: > 100 nM for the first, 10 to 100 nM for the second.

First: O=C1CCC(N2C(=O)c3cc4c(cc3C2=O)CN([C@H]2CC[C@H](C(=O)N3CC(Oc5ccc([C@@H]6c7ccc(O)cc7CC[C@@H]6c6ccccc6)cc5)C3)CC2)C4)C(=O)N1 (stereo partly drawn) [Compound B122, 2-(2,6-dioxopiperidin-3-yl)-6-((1S,4r)-4-(3-(4-((1R,2S)-6-hydroxy-2-phenyl-1,2,3,4-tctrahydronaphthalcn-1-yl)phenoxy)azetidine-1-carbonyl)cyclohexyl)-6,7-dihydropyrrolo[3,4-f]isoindole-1,3(2H,5H)-dione]
Second: O=C1CCC(N2C(=O)c3cc4c(cc3C2=O)CN([C@H]2CC[C@@H](C(=O)N3CC(Oc5ccc([C@@H]6c7ccc(O)cc7CC[C@@H]6c6ccccc6)cc5)C3)CC2)C4)C(=O)N1 (stereo partly drawn) [Compound B123, 2-(2,6-dioxopiperidin-3-yl)-6-((1R,4s)-4-(3-(4-((1R,2S)-6-hydroxy-2-phenyl-1,2,3,4-tetrahydronaphthalen-1-yl)phenoxy)azetidine-1-carbonyl)cyclohexyl)-6,7-dihydropyrrolo[3,4-f]isoindole-1,3(2H,5H)-dione]
The DC50 of the first is higher: 10 to 100 nM for the first, < 10 nM for the second.
